# Measured values from patent US20030215517A1, “Process for production of crystals of an adjuvant substance, crystals obtained thereby and pharmaceutical preparations containing them” (priority 2002, published 2003).
# Marks after values point to notes of the source that are not given here.
# Tests used:
# Type in all cases: physicochemical
# [1] = Particle size distribution before and after drying (Sympatec HELOS, dry dispersion RODOS)
# Protocol: The particle size distribution in Table I was measured with a Sympatec HELOS (H0445), dry dispersion system (RODOS), pressure 2 bar.
# [2] = Moisture content of spray-dried microcrystals (Example 2); conditions: Example 2, microcrystals spray-dried from ethanol suspension
# Protocol: (§1) Subsequently the suspension obtained in example 1 is filtered by means of a frit and washed with 100 ml of ethanol. The filter cake is suspended in 300 ml ethanol. The suspension is spray-dried under the following conditions in a laboratory spray-drier with two nozzles (2 mm) (QVF/Yamato):
# (§2) Microcrystals are obtained in a separating filter of the spray-drier with the following particle size distribution: […]
# [3] = Particle size development during crystallization with wet milling and temperature cycles (Example 1)
# Protocol: In a sulfonation flask with a blade mixer and a heating/cooling bath 30 g of lactose monohydrate are dissolved in 100 g of water at 62° C. A rotor-stator dispersing apparatus (Ultra Turrax, T25 basic, with S25N-25F) is operated with a rotation speed of 12000 to 22000 rpm to prepare the solution. Then 300 g of ethanol are added. After 1 to 2 minutes crystallization begins at 25 to 35° C. The Ultra Turrax is operated for an additional 10 minutes and then is shut off.
# The starting suspension obtained is heated at 50° C. and subsequently cooled within an interval of 1 hour at 20° C. This procedure is repeated still twice more.
# [4] = Particle size distribution of spray-dried microcrystals (Example 2); conditions: Example 2, microcrystals spray-dried from ethanol suspension
# Protocol: as §1, §2
# [5] = Suspension, 7 percent by weight lactose monohydrate in EtOH/water 75/25 (w/w), before drying
# [6] = Example 1, 1st Cycle (heated at 50° C., cooled to 20° C. within 1 hour)
smiles,measurement,setting,value
O.OC[C@H]1O[C@@H](O[C@H]2[C@H](O)[C@@H](O)C(O)O[C@@H]2CO)[C@H](O)[C@@H](O)[C@H]1O (stereo partly drawn) [lactose monohydrate],X10 particle diameter,"[1]; After spray-drying, dry powder",2.25 μm
same,X50 particle diameter,"[1]; After spray-drying, dry powder",6.0 μm
same,X100 particle diameter,"[1]; After spray-drying, dry powder",43 μm
same,X10 particle diameter,[1]; [5],2.11*** μm
same,X50 particle diameter,[1]; [5],5.9 μm
same,X100 particle diameter,[1]; [5],43 μm
same,Moisture content,[2],4.5%
same,X50,[3]; [6],5 μm
same,X100,[3]; [6],43 μm
same,X50,"[3]; Example 1, 2nd Cycle",5.5 μm
same,X100,"[3]; Example 1, 2nd Cycle",43 μm
same,X50,"[3]; Example 1, 3rd Cycle",6 μm
same,X100,"[3]; Example 1, 3rd Cycle",43 μm
same,X50,"[3]; Example 1, Starting Suspension",3 μm
same,X100,"[3]; Example 1, Starting Suspension",30 μm
same,Particle size X10,[4],2.5 μm
same,Particle size X50,[4],5.9 μm
same,Particle size X100,[4],43 μm
